Measurements from US20090311295A1, “PARTICLES WITH HIGH UNIFORM LOADING OF NANOPARTICLES AND METHODS OF PREPARATION THEREOF” (priority 2006, published 2009).

What was measured:
[1] = X-ray diffraction (XRD) crystallinity; assay type: physicochemical; settings: crystalline area divided by total scan area
Description: X-ray diffraction (XRD) was carried out on the raw materials of PS, PMMA and brilliant blue G. Crystallinity of these materials was calculated by dividing the crystalline area (obtained by subtracting amorphous region) by the total scan area. […] XRD was then run on the melt mixtures of brilliant blue G with PS and PMMA.

[2] = Solubility of raw materials and polymer melt mixtures; settings: for MeCl2 Solubility: methylene chloride, Table III; for solubility in organics: organic solvents

Compound | XRD % Crystallinity [1] [%] | MeCl2 Solubility [2] | solubility in organics [2] | water solubility [2]
CCOc1ccc(Nc2ccc(/C(=C3C=C/C(=[N+](/CC)Cc4cccc(S(=O)(=O)[O-])c4)C=C/3C)c3ccc(N(CC)Cc4cccc(S(=O)(=O)[O-])c4)cc3C)cc2)cc1.[Na+] [Brillian blue G, Brilliant blue G] | 22.3 |  |  | 
[Cu+2].c1ccc2c(c1)-c1nc-2nc2[n-]c(nc3nc(nc4[n-]c(n1)c1ccccc41)-c1ccccc1-3)c1ccccc21 [Copper(II) phthalocyanine] | 67.1 | − | insoluble in most organics | water insoluble
CCN(Cc1cccc(S(=O)(=O)[O-])c1)c1ccc(C(=C2C=CC(=[N+](CC)Cc3cccc(S(=O)(=O)[O-])c3)C=C2)c2ccccc2S(=O)(=O)[O-])cc1.[Na+].[Na+] [FD&C blue #1] |  | − | insoluble in most organics | very water soluble
O=C1/C(=C2\Nc3ccc(S(=O)(=O)[O-])cc3C2=O)Nc2ccc(S(=O)(=O)[O-])cc21.[Na+].[Na+] [FD&C blue #2] | 36.4 | − | insoluble in most organics | very water soluble
CC1(C)C(/C=C/C=C/C=C/C=C2\N(CCCCS(=O)(=O)O)c3ccc4ccccc4c3C2(C)C)=[N+](CCCCS(=O)(=O)[O-])c2ccc3ccccc3c21 [Indocyanine green] | 24.8 | − | insoluble in most organics | very water soluble
CC1=C(/C=C/C(C)=C/C=C/C(C)=C/C=C/C=C(C)/C=C/C=C(C)/C=C/C2=C(C)CCCC2(C)C)C(C)(C)CCC1 [beta-Carotene, β-carotene] |  | + | slightly soluble in some organics | nearly water insoluble
Chlorophyll | 19.1 | − | insoluble in most organics | water soluble
